SMILES strings stand for the structures. pIC50: −log10 of the molar value.

The target in the assay is T1, CYP11A1 (Homo sapiens, UniProt P05108).
T1 construct: endogenous in cells; host or cells: NCI-H295R
T1 sequence (P05108 40-521): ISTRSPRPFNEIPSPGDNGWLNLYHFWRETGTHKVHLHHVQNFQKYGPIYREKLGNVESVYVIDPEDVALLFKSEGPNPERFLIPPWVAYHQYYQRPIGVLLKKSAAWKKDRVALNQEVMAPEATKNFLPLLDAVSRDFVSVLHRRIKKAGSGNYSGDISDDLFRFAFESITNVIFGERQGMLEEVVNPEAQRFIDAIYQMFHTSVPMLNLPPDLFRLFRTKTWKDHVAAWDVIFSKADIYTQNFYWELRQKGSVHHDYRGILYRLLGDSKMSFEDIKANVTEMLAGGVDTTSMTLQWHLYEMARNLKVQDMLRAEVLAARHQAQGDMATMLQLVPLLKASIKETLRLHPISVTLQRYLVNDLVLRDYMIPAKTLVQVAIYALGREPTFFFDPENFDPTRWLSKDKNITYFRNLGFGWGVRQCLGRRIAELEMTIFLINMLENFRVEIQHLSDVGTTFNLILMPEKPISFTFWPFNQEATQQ
As to the kind of experiment: CYP11A1 inhibition: pregnenolone biosynthesis measured by ELISA in NCI-H295R cells. It is filed as cell-based. The note with it: NCI-H295R cells treated for 24 hours, 10 concentrations in duplicates, read-out: IC50 on CYP11A1 inhibition (Group). As to the method:
The ability of the test compounds to inhibit pregnenolone biosynthesis was measured by enzyme-linked immunosorbent assay (ELISA) detecting pregnenolone (Abnova Pregnenolone ELISA Kit, KA1912). […] To determine the half maximal inhibitory concentration (IC50) of the test compounds on CYP11A1 inhibition, the cells were treated for 24 hours with increasing concentrations of the test compound. The final DMSO concentration was 0.4%. Medium samples were diluted 1:6 and pregnenolone amounts determined with ELISA. Manufacturer's recommended protocols were used and pregnenolone (Sigma-Aldrich, P9129) standards were prepared in cell culture medium. Absorbance (A450) was measured with Envision plate reader (PerkinElmer). All the test compounds were studied at 10 concentrations in duplicates.
For orientation: In an ELISA, binding on a coated surface is turned into a signal by an enzyme label.
The pIC50 is the IC50 on a negative log10 scale, so that one unit is a factor of ten. Consider `O=C(c1cncc(-c2cccc(OC(F)(F)F)c2)c1)N1CCOc2ccccc21` [Compound 1, (2,3-Dihydro-4H-benzo[b][1,4]oxazin-4-yl)(5-(3-(trifluoromethoxy)phenyl)-pyridin-3-yl)methanone], for which the pIC50 is 5.60 to 6.70. For `O=C(c1cncc(-c2ccc(F)cc2)c1)N1CCOc2cc(F)ccc21` [Compound 2, (7-Fluoro-2,3-dihydro-4H-benzo[b][1,4]oxazin-4-yl)(5-(4-fluorophenyl)pyridin-3-yl)methanone] the value was above 7.30; for `Cc1c(C(=O)N2CCOc3ccccc32)cncc1-c1ccccc1` [Compound 3, (2,3-Dihydro-4H-benzo[b][1,4]oxazin-4-yl)(4-methyl-5-phenylpyridin-3-yl)-methanone], 6.70 to 7.29; for `Cc1c(C(=O)N2CCCc3ccccc32)cncc1-c1ccccc1` [Compound 4, (3,4-Dihydroquinolin-1(2H)-yl)(4-methyl-5-phenylpyridin-3-yl)methanone], 6.70 to 7.29.

`Cc1c(C(=O)N2CCOc3ccccc32)cncc1-c1ccc(F)cc1` [Compound 5, (2,3-Dihydro-4H-benzo[b][1,4]oxazin-4-yl)(5-(4-fluorophenyl)-4-methylpyridin-3-yl)methanone]: the pIC50 is above 7.30. `O=C(c1cc(-c2ccc(F)cc2)cnn1)N1CCOc2ccccc21` [Compound 7, (2,3-Dihydro-4H-benzo[b][1,4]oxazin-4-yl)(5-(4-fluorophenyl)pyridazin-3-yl)-methanone]: the pIC50 is 5.60 to 6.70. For `O=C(c1cncc(-c2ccc3ncoc3c2)n1)N1CCOc2ccccc21` [Compound 8, (6-(Benzo[d]oxazol-6-yl)pyrazin-2-yl)(2,3-dihydro-4H-benzo[b][1,4]oxazin-4-yl)methanone] the value was above 7.30. As for `O=C(c1cncc(-c2cccc(OC(F)(F)F)c2)n1)N1CCOc2ccccc21` [Compound 9, (2,3-Dihydro-4H-benzo[b][1,4]oxazin-4-yl)(6-(3-(trifluoromethoxy)phenyl)-pyrazin-2-yl)methanone], the pIC50 is 6.70 to 7.29.

Turning to `O=C(c1cncc(-c2ccccc2)c1)N1CCOc2ccccc21` [Compound 10, (2,3-Dihydro-4H-benzo[b][1,4]oxazin-4-yl)(5-phenylpyridin-3-yl)methanone], the pIC50 is above 7.30. For `O=C(c1cncc(-c2ccc3c(c2)OCC3)n1)N1CCCc2ccccc21` [Compound 12, (6-(2,3-Dihydrobenzofuran-6-yl)pyrazin-2-yl)(3,4-dihydroquinolin-1(2H)-yl)-methanone] the value was above 7.30. As to `O=C(c1cncc(-c2ccc3c(c2)OCC3)n1)N1CCOc2ccccc21` [Compound 13, (2,3-Dihydro-4H-benzo[b][1,4]oxazin-4-yl)(6-(2,3-dihydrobenzofuran-6-yl)pyrazin-2-yl)methanone], the pIC50 is above 7.30.

Consider `COc1ccc(-c2cncc(C(=O)N3CCCc4ccccc43)n2)cc1` [Compound 14, (3,4-Dihydroquinolin-1(2H)-yl)(6-(4-methoxyphenyl)pyrazin-2-yl)methanone], for which the pIC50 is above 7.30. Turning to `O=C(c1cncc(-c2ccccc2)n1)N1CCCc2ccccc21` [Compound 15, (3,4-Dihydroquinolin-1(2H)-yl)(6-phenylpyrazin-2-yl)methanone], the pIC50 is above 7.30.

Take `O=C(c1cncc(-c2ccc(F)cc2)c1)N1CCCc2ccccc21` [Compound 16, (3,4-Dihydroquinolin-1(2H)-yl)(5-(4-fluorophenyl)pyridin-3-yl)methanone]: the pIC50 is above 7.30. `COc1ccc(-c2cncc(C(=O)N3CCCc4ccccc43)c2)cc1` [Compound 18, (3,4-Dihydroquinolin-1(2H)-yl)(5-(4-methoxyphenyl)pyridin-3-yl)methanone]: the negative logarithm of the IC50 (pIC50) was above 7.30.

For the molecule `O=C(c1cncc(-c2ccc(F)c(F)c2)c1)N1CCOc2ccccc21` [Compound 19, (5-(3,4-Difluorophenyl)pyridin-3-yl)(2,3-dihydro-4H-benzo[b][1,4]oxazin-4-yl)-methanone], the pIC50 is above 7.30. For `O=C(c1cncc(-c2ccc(F)cc2)n1)N1CCOc2ccccc21` [Compound 20, (2,3-Dihydro-4H-benzo[b][1,4]oxazin-4-yl)(6-(4-fluorophenyl)pyrazin-2-yl)-methanone] the value was above 7.30.

With `CN1CCN(C(=O)c2cncc(-c3ccc(F)cc3)n2)c2ccccc21` [Compound 21, (6-(4-Fluorophenyl)pyrazin-2-yl)(4-methyl-3,4-dihydroquinoxalin-1(2H)-yl)-methanone], the pIC50 was above 7.30. For `CC1CCc2ccccc2N1C(=O)c1cncc(-c2ccc(F)cc2)n1` (stereo not drawn) [Compound 22, (6-(4-Fluorophenyl)pyrazin-2-yl)(2-methyl-3,4-dihydroquinolin-1(2H)-yl)-methanone] the value was above 7.30; for `COc1ccc(-c2cncc(C(=O)N3CCOc4ccccc43)c2)cc1` [Compound 23, (2,3-Dihydro-4H-benzo[b][1,4]oxazin-4-yl)(5-(4-methoxyphenyl)pyridin-3-yl)-methanone], above 7.30; for `O=C(c1cncc(-c2ccc(F)cc2)c1)N1CCOc2ccccc21` [Compound 24, (2,3-Dihydro-4H-benzo[b][1,4]oxazin-4-yl)(5-(4-fluorophenyl)pyridin-3-yl)-methanone], above 7.30. For `COc1cccc(-c2cncc(C(=O)N3CCCc4ccccc43)n2)c1` [Compound 25, (3,4-Dihydroquinolin-1(2H)-yl)(6-(3-methoxyphenyl)pyrazin-2-yl)methanone] the value was above 7.30; for `CC1COc2ccccc2N1C(=O)c1cncc(-c2ccc(F)cc2)n1` (stereo not drawn) [Compound 26, (6-(4-Fluorophenyl)pyrazin-2-yl)(3-methyl-2,3-dihydro-4H-benzo[b][1,4]oxazin-4-yl)methanone], above 7.30; for `O=C(c1cncc(-c2ccc(F)c(O)c2)c1)N1CCOc2ccccc21` [Compound 27, (2,3-Dihydro-4H-benzo[b][1,4]oxazin-4-yl)(5-(4-fluoro-3-hydroxyphenyl)-pyridin-3-yl)methanone], above 7.30. For `O=C(c1cncc(-c2ccc(F)cc2F)c1)N1CCOc2ccccc21` [Compound 28, (5-(2,4-Difluorophenyl)pyridin-3-yl)(2,3-dihydro-4H-benzo[b][1,4]oxazin-4-yl)-methanone] the value was above 7.30; for `O=C(c1cncc(-c2ccc3c(c2)OCC3)n1)N1CCOC2CCCCC21` (stereo not drawn) [Compound 29, (6-(2,3-Dihydrobenzofuran-6-yl)pyrazin-2-yl)(octahydro-4H-benzo[b][1,4]-oxazin-4-yl)methanone], above 7.30. For `O=C(c1cnnc(-c2ccc(F)cc2)c1)N1CCCc2ccccc21` [Compound 30, (3,4-Dihydroquinolin-1(2H)-yl)(6-(4-fluorophenyl)pyridazin-4-yl)methanone], the pIC50 is above 7.30.

Turning to `CN1CCN(C(=O)c2cncc(-c3ccc(F)cc3)c2)c2ccccc21` [Compound 31, (5-(4-Fluorophenyl)pyridin-3-yl)(4-methyl-3,4-dihydroquinoxalin-1(2H)-yl)-methanone], the negative-log IC50 (pIC50) is above 7.30.

Consider `O=C(c1cncc(-c2ccc([N+](=O)[O-])cc2)c1)N1CCOc2ccccc21` [Compound 32, (2,3-Dihydro-4H-benzo[b][1,4]oxazin-4-yl)(5-(4-nitrophenyl)pyridin-3-yl)-methanone], for which the pIC50 is above 7.30. Then `O=C(c1cncc(C2=CCCCC2)c1)N1CCOc2ccccc21` [Compound 33, (5-(Cyclohex-1-en-1-yl)pyridin-3-yl)(2,3-dihydro-4H-benzo[b][1,4]oxazin-4-yl)methanone], with above 7.30; and `COc1ccc(-c2cncc(C(=O)N3CCCc4ncccc43)c2)cc1` [Compound 34, (3,4-Dihydro-1,5-naphthyridin-1(2H)-yl)(5-(4-methoxyphenyl)pyridin-3-yl)-methanone], with above 7.30. For `CCOC(=O)C1CN(C(=O)c2cncc(-c3ccc(F)cc3)n2)c2ccccc2O1` (stereo not drawn) [Compound 35, Ethyl 4-(6-(4-fluorophenyl)pyrazine-2-carbonyl)-3,4-dihydro-2H-benzo[b][1,4]-oxazine-2-carboxylate] the value was above 7.30. For `O=C1CCN(C(=O)c2cncc(-c3ccccc3)c2)c2ccccc21` [Compound 36, 1-(5-Phenylnicotinoyl)-2,3-dihydroquinolin-4(1H)-one] the value was above 7.30; for `O=C(c1cncc(-c2ccccc2)n1)N1CCCc2ncccc21` [Compound 37, (3,4-Dihydro-1,5-naphthyridin-1(2H)-yl)(6-phenylpyrazin-2-yl)methanone], above 7.30; for `COc1cccc(-c2cncc(C(=O)N3CCCc4ccccc43)c2)c1` [Compound 38, (3,4-Dihydroquinolin-1(2H)-yl)(5-(3-methoxyphenyl)pyridin-3-yl)methanone], above 7.30. Consider `O=C(c1cncc(-n2cccc2)c1)N1CCCc2ccccc21` [Compound 39, (5-(1H-Pyrrol-1-yl)pyridin-3-yl)(3,4-dihydroquinolin-1(2H)-yl)methanone], for which the pIC50 is above 7.30.

The values are drawn from patent US20240124431A1, “2,3-DIHYDRO-4H-BENZO[B][1,4]OXAZIN-4-YL)(5-(PHENYL)-PYRIDIN-3-YL)METHANONE DERIVATIVES AND SIMILAR COMPOUNDS AS CYP11A1 INHIBITORS FOR THE TREATMENT OF PROSTATE CANCER” (ORION CORPORATION, priority 2020, published 2024).
